Measured values taken from the supplement of paper PMC11061612.

Key:
Assay in all cases: Bliss excess, mean over the matrix (fraction); higher = more synergy
[1] = tested on: FADU (Head and Neck Carcinoma)
Method in brief: (§1)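 Bliss excess equals the observed combination effect minus the expected value EA + EB − EA·EB, where EA and EB are the effects of each agent alone. Combination Emax is the second-highest inhibition within the matrix. Inhibition was scaled from CellTiter-Glo 2.0 luminescence, with 0 set by vehicle wells and 1 by blank wells, after 72 hours of two-drug dosing of cells plated in 1536-well plates.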

[2] = tested on: RKN (Other Solid Carcinomas)
Method in brief: as §1

SF268 (Low Grade Glioma) = tested on: SF268 (Low Grade Glioma)
Method in brief: as §1

[3] = tested on: PANC-03-27 (Pancreatic Carcinoma)
Method in brief: as §1

LN-229 (Glioblastoma) = tested on: LN-229 (Glioblastoma)
Method in brief: as §1

[4] = tested on: LXF-289 (Lung Adenocarcinoma)
Method in brief: as §1

[5] = tested on: COLO-680N (Esophageal Squamous Cell Carcinoma)
Method in brief: as §1

[6] = tested on: MFE-280 (Endometrial Carcinoma)
Method in brief: as §1

[7] = tested on: OPM-2 (Plasma Cell Myeloma)
Method in brief: as §1

[8] = tested on: 23132-87 (Gastric Carcinoma)
Method in brief: as §1

[9] = tested on: LK-2 (Squamous Cell Lung Carcinoma)
Method in brief: as §1

[10] = tested on: PC-3_[JPC-3] (Lung Adenocarcinoma)
Method in brief: as §1

[11] = tested on: TE-8 (Esophageal Squamous Cell Carcinoma)
Method in brief: as §1

[12] = tested on: GP5d (Colorectal Carcinoma)
Method in brief: as §1

[13] = tested on: NCI-H23 (Lung Adenocarcinoma)
Method in brief: as §1

[14] = tested on: RCM-1 (Colorectal Carcinoma)
Method in brief: as §1

WM793B (Melanoma) = tested on: WM793B (Melanoma)
Method in brief: as §1

[15] = tested on: VAL (B-Cell Non-Hodgkin's Lymphoma)
Method in brief: as §1

[16] = tested on: MKN45 (Gastric Carcinoma)
Method in brief: as §1

[17] = tested on: SU-DHL-10 (B-Cell Non-Hodgkin's Lymphoma)
Method in brief: as §1

Row | SMILES | Bliss excess [1] | Bliss excess [2] | Bliss excess (SF268 (Low Grade Glioma)) | Bliss excess [3] | Bliss excess (LN-229 (Glioblastoma)) | Bliss excess [4] | Bliss excess [5] | Bliss excess [6] | Bliss excess [7] | Bliss excess [8] | Bliss excess [9] | Bliss excess [10] | Bliss excess [11] | Bliss excess [12] | Bliss excess [13] | Bliss excess [14] | Bliss excess (WM793B (Melanoma)) | Bliss excess [15] | Bliss excess [16] | Bliss excess [17]
1 | CCN(CCO)CCCOc1ccc2c(Nc3cc(CC(=O)Nc4cccc(F)c4)[nH]n3)ncnc2c1 [AZD2811] + O=C(c1cc(Cc2n[nH]c(=O)c3ccccc23)ccc1F)N1CCN(C(=O)C2CC2)CC1 [Olaparib] (first compound max 1 µM, 7x7, partner max 10 µM) | 0.0347 | 0.0029 | 0.0105 | -0.0161 | -0.0223 | 0.0677 | -0.0439 | 0.0174 | 0.015 | 0.0143 | -0.0329 | -0.0067 | -0.013 | -0.0785 | 0.0076 | -0.04 | -0.015 | -0.0246 | -0.0434 | -0.187
2 | CN(CCO)CC[C@H](CSc1ccccc1)Nc1ccc(S(=O)(=O)NC(=O)c2ccc(N3CCC([C@@H](O)c4ccccc4-c4ccc(Cl)cc4)CC3)cc2)cc1S(=O)(=O)C(F)(F)F [AZD4320] + C1CN(CCC1(C(=O)N[C@@H](CCO)C2=CC=C(C=C2)Cl)N)C3=NC=NC4=C3C=CN4 [Capivasertib] (first compound max 1 µM, 7x7, partner max 3 µM) | -0.0268 | -0.0321 | -0.0502 | -0.0481 | -0.0443 | -0.0904 | -0.0411 | 0.0092 | -0.0088 | -0.0483 | -0.0077 | -0.0961 | -0.0074 | -0.0396 | -0.0273 | -0.0768 | -0.0384 | 0.0595 | -0.0977 | 0.0129
3 | CN(CCO)CC[C@H](CSc1ccccc1)Nc1ccc(S(=O)(=O)NC(=O)c2ccc(N3CCC([C@@H](O)c4ccccc4-c4ccc(Cl)cc4)CC3)cc2)cc1S(=O)(=O)C(F)(F)F [AZD4320] + CCN(CCO)CCCOc1ccc2c(Nc3cc(CC(=O)Nc4cccc(F)c4)[nH]n3)ncnc2c1 [AZD2811] (first compound max 1 µM, 7x7, partner max 1 µM) | 0.0014 | -0.0481 | 0.0843 | 0.0197 | -0.0074 | -0.0532 | -0.0373 | 0.0821 | 0.128 | -0.0339 | 0.0358 | -0.0598 | 0.0845 | 0.0026 | 0.0244 | -0.0207 | 0.0038 | -0.0063 | -0.0438 | -0.0949
4 | CN(CCO)CC[C@H](CSc1ccccc1)Nc1ccc(S(=O)(=O)NC(=O)c2ccc(N3CCC([C@@H](O)c4ccccc4-c4ccc(Cl)cc4)CC3)cc2)cc1S(=O)(=O)C(F)(F)F [AZD4320] + CN(C)CCCOc1ccc(-c2ccc3ncc4c(c3c2)n(C2CCOCC2)c(=O)n4C)cn1 [AZD0156] (first compound max 1 µM, 7x7, partner max 1 µM) | -0.01 | -0.0417 | -0.0012 | -0.0459 | -0.0218 | -0.0636 | -0.028 | 0.0113 | 0.0221 | -0.0277 | 0.0312 | -0.0583 | -0.0277 | -0.0087 | -0.0118 | -0.0538 | -0.0564 | 0.0174 | -0.0612 | -0.0158
5 | CN(CCO)CC[C@H](CSc1ccccc1)Nc1ccc(S(=O)(=O)NC(=O)c2ccc(N3CCC([C@@H](O)c4ccccc4-c4ccc(Cl)cc4)CC3)cc2)cc1S(=O)(=O)C(F)(F)F [AZD4320] + C[C@@H]1COCCN1C2=NC(=NC(=C2)C3(CC3)[S@](=N)(=O)C)C4=C5C=CNC5=NC=C4 [AZD6738] (first compound max 1 µM, 7x7, partner max 10 µM) | -0.0165 | -0.03 | 0.023 | -0.0392 | 0.0358 | 0.0029 | -0.0302 | 0.0099 | -0.0534 | 0.0832 | -0.0267 | -0.0469 | -0.0357 | -0.0515 | -0.0073 | -0.0391 | -0.0406 | 0.0095 | -0.0471 | 0.0076
6 | CN(CCO)CC[C@H](CSc1ccccc1)Nc1ccc(S(=O)(=O)NC(=O)c2ccc(N3CCC([C@@H](O)c4ccccc4-c4ccc(Cl)cc4)CC3)cc2)cc1S(=O)(=O)C(F)(F)F [AZD4320] + C[C@@H](Nc1cc(F)cc(F)c1)c1cc(C(=O)N(C)C)cc2c(=O)cc(N3CCOCC3)oc12 [AZD8186] (first compound max 1 µM, 7x7, partner max 3 µM) | 0.041 | -0.0338 | 0.014 | 0.0439 | 0.0166 | -0.0351 | 0.0088 | 0.0097 | 0.0851 | -0.031 | -0.0056 | -0.0176 | 0.008 | -0.0378 | 0.08 | -0.0416 | 0.0434 | 0.0137 | -0.0724 | 0.0092
7 | CN(CCO)CC[C@H](CSc1ccccc1)Nc1ccc(S(=O)(=O)NC(=O)c2ccc(N3CCC([C@@H](O)c4ccccc4-c4ccc(Cl)cc4)CC3)cc2)cc1S(=O)(=O)C(F)(F)F [AZD4320] + Cc1cc2ncnn2cc1Nc1ncc2c(n1)n(C1CCOCC1)c(=O)n2C [AZD7648] (first compound max 1 µM, 7x7, partner max 10 µM) | -0.016 | -0.0467 | -0.0371 | -0.061 | -0.0393 | -0.0326 | -0.0437 | -0.0471 | 0.0418 | -0.0311 | -0.0075 | -0.0635 | -0.0357 | -0.052 | -0.0298 | -0.0153 | -0.0234 | 0.0316 | -0.0744 | 0.0212
8 | CN(CCO)CC[C@H](CSc1ccccc1)Nc1ccc(S(=O)(=O)NC(=O)c2ccc(N3CCC([C@@H](O)c4ccccc4-c4ccc(Cl)cc4)CC3)cc2)cc1S(=O)(=O)C(F)(F)F [AZD4320] + Cn1cnc2c(F)c(Nc3ccc(Br)cc3Cl)c(C(=O)NOCCO)cc21 [Selumetinib] (first compound max 1 µM, 7x7, partner max 3 µM) | 0.183 | 0.0307 | 0.0069 | 0.0406 | 0.0585 | -0.0301 | 0.0047 | -0.0211 | 0.0683 | 0.0543 | -0.0134 | 0.0339 | -0.0628 | 0.0908 | 0.0703 | 0.0333 | 0.0604 | 0.0113 | -0.0725 | 0.0912
9 | COc1nnc2ccc(N3CCC(c4ccc(OCCN5CCN(C)C(=O)[C@H]5C)cc4)CC3)nn12 [AZD5153] + C=CCn1c(=O)c2cnc(Nc3ccc(N4CCN(C)CC4)cc3)nc2n1-c1cccc(C(C)(C)O)n1 [AZD1775] (first compound max 1 µM, partner max 1 µM) | -0.0273 | -0.0898 | 0.0037 | -0.152 | -0.039 | -0.0212 | -0.0746 | -0.0779 | -0.0366 | 0.0309 | 0.0029 | -0.06 | -0.0426 | -0.0279 | -0.027 | -0.0498 | -0.0265 | -0.126 | -0.105 | -0.0044
10 | COc1nnc2ccc(N3CCC(c4ccc(OCCN5CCN(C)C(=O)[C@H]5C)cc4)CC3)nn12 [AZD5153] + CC1(C)CCC(CN2CCN(c3ccc(C(=O)NS(=O)(=O)c4ccc(NCC5CCOCC5)c([N+](=O)[O-])c4)c(Oc4cnc5[nH]ccc5c4)c3)CC2)=C(c2ccc(Cl)cc2)C1 [Venetoclax] (first compound max 1 µM, 7x7, partner max 1 µM) | -0.0492 | -0.0369 | -0.128 | -0.0422 | -0.0496 | -0.009 | -0.0372 | -0.0138 | 0.0082 | -0.0697 | -0.0015 | -0.111 | -0.0838 | -0.0741 | -0.0473 | -0.0191 | -0.0525 | -0.0493 | -0.0389 | -0.0221
11 | COc1nnc2ccc(N3CCC(c4ccc(OCCN5CCN(C)C(=O)[C@H]5C)cc4)CC3)nn12 [AZD5153] + CCN(CCO)CCCOc1ccc2c(Nc3cc(CC(=O)Nc4cccc(F)c4)[nH]n3)ncnc2c1 [AZD2811] (first compound max 1 µM, 7x7, partner max 1 µM) | -0.0529 | -0.0286 | -0.0592 | -0.0487 | 0.0112 | 0.0227 | -0.0833 | -0.0343 | 0.0194 | -0.0223 | -0.282 | -0.0306 | -0.0152 | -0.082 | -0.0412 | -0.03 | -0.0567 | -0.0945 | -0.01 | -0.049
12 | COc1nnc2ccc(N3CCC(c4ccc(OCCN5CCN(C)C(=O)[C@H]5C)cc4)CC3)nn12 [AZD5153] + C[C@@H]1COCCN1C2=NC(=NC(=C2)C3(CC3)[S@](=N)(=O)C)C4=C5C=CNC5=NC=C4 [AZD6738] (first compound max 1 µM, 7x7, partner max 10 µM) | 0.0155 | -0.0757 | 0.0311 | -0.091 | 0.0224 | 0.0681 | 0.0046 | -0.0103 | -0.0245 | 0.0394 | 0.0491 | 0.0651 | 0.0176 | -0.0421 | -0.0105 | -0.115 | -0.0158 | -0.111 | -0.0649 | -0.038
13 | COc1nnc2ccc(N3CCC(c4ccc(OCCN5CCN(C)C(=O)[C@H]5C)cc4)CC3)nn12 [AZD5153] + Cc1c2c(nn1C)CSCc1cc(n(C)n1)CSc1cc(c3ccccc3c1)OCCCc1c(C(=O)O)n(C)c3c-2c(Cl)ccc13 [AZD5991] (first compound max 1 µM, 7x7, partner max 1 µM) | -0.0366 | -0.0692 | 0.0097 | -0.0183 | 0.0175 | 0.0019 | -0.0205 | -0.0473 | -0.0062 | 0.0791 | 0.0184 | -0.0149 | 0.0322 | -0.0569 | -0.086 | -0.0512 | -0.0303 | -0.112 | -0.0635 | -0.03
